Test results reported in PMC10375533, “Preference of Bacterial Rhamnosyltransferases for 6-Deoxysugars Reveals a Strategy To Deplete O-Antigens” (Journal of the American Chemical Society, 2023).
Values joined by “and” are separate entries in the source; they are usually repeats but may differ in a detail not shown here. Identical values can stand only once. “Also recorded” adds a separate entry of the source. Like-named read-outs stand apart in the source and are kept apart here.

Tests used:
E. coli WbbL [1] = target: T1, E. coli WbbL (Escherichia coli, UniProt P36667); assay: In vitro inhibition assay of E. coli WbbL with monosaccharides and compound 2; type: biochemical; details: 250 µM dTDP-β-L-Rha, 1 mM GlcNAc-PP-undecaprenol
T1 sequence (P36667 whole entry, looked up): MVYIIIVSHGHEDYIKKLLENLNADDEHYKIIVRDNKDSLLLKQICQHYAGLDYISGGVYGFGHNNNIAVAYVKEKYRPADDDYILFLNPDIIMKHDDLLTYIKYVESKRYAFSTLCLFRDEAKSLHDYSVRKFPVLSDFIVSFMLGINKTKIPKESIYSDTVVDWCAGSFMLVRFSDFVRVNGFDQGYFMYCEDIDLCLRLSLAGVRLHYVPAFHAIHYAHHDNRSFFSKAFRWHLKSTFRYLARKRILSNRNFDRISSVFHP
Experimental: Primers were purchased from Invitrogen and sequencing was completed by GENEWIZ (Azenta) or EtonBio. Chemicals were purchased from Sigma Aldrich, CarboSynth, Fisher Scientific, and Cayman without further purification. 1H, 13C, and 31P NMR spectra were recorded on a Bruker Avance III 400, 500, or 600 MHz instrument. All spectra were calibrated using residual non-deuterated solvent as an internal reference and processed using MestReNova (authorized to NYU). Gel filtration purification and analyses was performing using at AKTA pure 15 L instrument (UNICORN™ software, GE Healthcare). HRMS analyses were acquired on an Agilent 6224 Accurate-Mass time-of-flight LC/MS (LC-TOF) spectrometer equipped with an electrospray ionization (ESI) source with an autosampler. GraphPad Prism software 9.0 was used for all plotting and data analysis unless otherwise noted. Statistical significance of grouped data was assessed using paired t-tests in Prism. For the IC50 calculation, data were fit in Prism using the equation log(inhibitor) versus response (three parameters): y = bottom + (top-bottom)/(1+10^(X-log IC50)) based on the assumption the Hill slope would be 1, as predicted by ITC results with n ~ 1 for donor ligands. Data was normalized to controls without enzyme and with no inhibitor added. Confidence intervals were calculated based on the standard error. 1M TEAB buffer was prepared by suspending triethylamine (1 mol, 139 mL) in water (700 mL) and passing carbon dioxide (from evaporated dry ice) through the mixture until the pH=7.5. The buffer was diluted to 1L and stored as a stock solution at 4 °C. Prior to use it was diluted to 50 mM in deionized H2O […]
Methods for protein and cellular biochemistry/bioinformatics used in this study.
Bioinformatic approach to identify Thermus thermophilus RfbF as a putative glycolipid RT.
The Carbohydrate-Active Enzymes Database (CAZy.org) was used to identify thermophilic organisms with annotated glycosyltransferases (GTs).11-12 Genes annotated as wbbL have been experimentally shown to encode dTDP-rhamnosyltransferases that transfer L-Rha onto N-acetyl--a-D-glucosamine-1-diphospholipid acceptors.13-14 In Shigella flexneri, the protein encoded by rfbF was noted to carry out the same biochemical activity as WbbL based on genetic and LPS analyses.15-16 Both E. coli WbbL and S. flexneri RfbF belong to the GT2 family. A CAZy search for rfbF and wbbL was performed in the genomes of Gram-negative extreme thermophiles, which […]
(GenBank: AAS80876.1), which had not yet been biochemically characterized. Protein ANalysis […]
(§1) thermodynamic values were evaluated using ITCRun software (TA Instruments) and fit with a […]
Specific activities were determined by modification of the protocol outlined by Li et al. […]

E. coli WbbL [2] = target: T1, E. coli WbbL; assay: Specific activity assay of rhamnosyltransferase (HPLC, rSAP-coupled), E. coli WbbL membrane fraction; type: biochemical; details: native donor dTDP-β-L-Rha, t = 1 h
Experimental: as §1
Specific activity assays for bacterial rhamnosyltransferases from different species.
Specific activities were determined by modification of the protocol outlined by Li et al.
Specifically, 0.155 mg/mL RfbF, 0.081 mg/mL E. coli WbbL, or 0.111 mg/mL Mtb WbbL were used to initiate the following reaction mixtures: 25 mM Tris-HCl pH 7.5, 1 mM GlcNAc-PP-lipid, 1 mM donor-substrate, 5 mM MgCl2, 1 U rSAP (1000 U/mL stock solution), 1% (v/v) Triton X-100, 5% (v/v) DMSO (for reactions containing C55, C20, C15 lipid) or MeOH (for reactions containing C35 lipid) in a total volume of 20 µL. […]
Consumption of NDP-sugar donors was monitored on reverse phase HPLC equipped with a Phenomenex 5 µm, 21.2 x 150 mm, NX-C18 Å Gemini column with solvent A (50 mM TEAB pH 8.0) and solvent B (acetonitrile) using the following linear gradient: 0% B (t = 0-5 min), 0-5% B (t = 5-25 min), 5-90% B (t = 25-35 min). Absorbance at wavelength (l) = 254 nm was monitored.
Consumption was quantified by integration of dTDP-sugar donors relative to the total amount of thymidine-containing products, which was then subtracted from the starting dTDP-sugar concentration at the t = 0 time point. […] Characterization of each reaction was monitored by scanning in the negative ion mode and analyzed using Agilent MassHunter […]

T. thermophilus RfbF = T. thermophilus RfbF (Thermus thermophilus, UniProt Q72KB9); assay: Isothermal titration calorimetry (ITC) binding measurements with RfbF; details: ITC
Chain of T. thermophilus RfbF (Q72KB9 entry or part of it): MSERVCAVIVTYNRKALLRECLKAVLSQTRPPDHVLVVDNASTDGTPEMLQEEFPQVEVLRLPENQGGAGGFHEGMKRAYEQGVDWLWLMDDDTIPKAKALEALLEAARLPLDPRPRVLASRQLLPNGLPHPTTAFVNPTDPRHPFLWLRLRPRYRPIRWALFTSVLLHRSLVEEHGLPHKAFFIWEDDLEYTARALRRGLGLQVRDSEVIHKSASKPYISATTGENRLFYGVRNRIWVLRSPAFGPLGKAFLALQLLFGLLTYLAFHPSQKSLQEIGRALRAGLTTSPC

[3] = test system: E. coli cells with or without wbbL; assay: Growth inhibition / toxicity of 2 with E. coli (OD600); details: ~2 mM / low millimolar concentrations of 2, E. coli +/- wbbL
[4] = test system: WbbL-dependent O-Ag synthesis in E. coli expressing wbbL; type: cell-based, Escherichia coli
crude Mtb WbbL = details: cited from earlier work
[5] = 25 °C, ligand titrated into 110 µM RfbF

OC[C@@H]1OC(O)[C@H](O)[C@H](O)[C@H]1O (stereo partly drawn) [L-Man, L-Mannose, reference compound]
inhibition of E. coli WbbL (E. coli WbbL [1]; 5 mM inhibitor, 8 min): Lack of inhibition

N[C@@H](CO)C(=O)O [Ser]
turnover as noncanonical acceptor with the native donor (E. coli WbbL [2]): no turnover

CC(=O)NC1C(OP(=O)(O)OP(=O)(O)OCC2OC(n3ccc(=O)[nH]c3=O)C(O)C2O)OC(CO)C(O)C1O [UDP-α-D-GlcNAc, UDP-a-N-acetyl-D-glucosamine, reference compound]
turnover as noncanonical acceptor with the native donor (E. coli WbbL [2]; listed as UDP-α-GlcNAc): no turnover; also recorded: not used as an acceptor
ΔG (T. thermophilus RfbF; [5]): N/B
ΔH (T. thermophilus RfbF; [5]): N/B
ΔS (T. thermophilus RfbF; [5]): N/B
KD (T. thermophilus RfbF; 25 °C, ligand titrated into 110 µM RfbF, one-site model, spread = SD, triplicate): N/B
binding to RfbF by ITC (in words) (T. thermophilus RfbF; ligand titrated into 110 µM RfbF, listed as UDP-a-D-GlcNAc): no
binding to RfbF by ITC (in words) (T. thermophilus RfbF; ligand titrated into 110 µM RfbF, listed as UDP-α-GlcNAc): did not bind at μM concentrations

C[C@@H]1NC[C@H](O)[C@H](O)[C@H]1O [compound 2, 1,5-dideoxy-1,5-imino-L-rhamnitol]
toxicity to E. coli (growth, OD600) [3]: not toxic
binding to RfbF by ITC (in words) (T. thermophilus RfbF; ligand titrated into 110 µM RfbF): no measurable binding
Kd (T. thermophilus RfbF; KD (beyond measurable limit), 5-10 mM ligand titrated into 110 µM RfbF): > 1000 µM
IC50 (E. coli WbbL [1]; 0.0101 mg/mL E. coli WbbL, 95% confidence interval, read-out: half maximal inhibitory concentration (IC50)): ~3000 µM and 3160 µM
inhibition at 5000 µM (E. coli WbbL [1]; 5 mM inhibitor, 8 min): ~53%
reduction of O-Ag levels by densitometry ([4]; E. coli expressing wbbL grown with 2 versus untreated, silver stain / anti-O16 blot of purified LPS): ~40%
reduction of LPS produced versus untreated cells ([4]; E. coli expressing wbbL grown with ~2 mM 2, equivalent number of cells, mass of extracted LPS): > 50%

Cc1cn(C2CC(O)C(COP(=O)(O)OP(=O)(O)OC3OC(C)C(O)C(O)C3O)O2)c(=O)[nH]c1=O [dTDP-β-L-Rha, reference compound]
ΔG (T. thermophilus RfbF; [5]): -6.77 (.38) kcal/mol
ΔH (T. thermophilus RfbF; [5]): -8.68 (0.59) kcal/mol
ΔS (T. thermophilus RfbF; [5]): -6.43 (0.68) cal/mol·K
Kd (T. thermophilus RfbF; 25 °C, ligand titrated into 110 µM RfbF, one-site model, spread = SD, triplicate, read-out: KD): ~8 µM
Kd (T. thermophilus RfbF; KD, 25 °C, ligand titrated into 110 µM RfbF, one-site model, spread = SD, triplicate): 8.31 ± 3.66 µM
Km (crude Mtb WbbL): ~35 µM

L-rhamnose [reference compound]
inhibition of E. coli WbbL (E. coli WbbL [1]; 5 mM inhibitor, 8 min): 38%
